Measurements reported in patent publication US6511959B1, “Use of calcium-activated neutral protease (CANP) inhibitors in pharmaceutical preparations” (Norsk Hydro AS, priority 1991, dated 2003).
Square brackets hold non-standard residues; d marks the D form. Peptide text beside a SMILES is read from it. Nle = CCCC[C@H](N)C(=O)O

Assays:
[1] = test system: human NHIK 3025 cervix carcinoma cells; experiment: Cell survival (colony formation) of cervix carcinoma cells; assay type: cell-based; conditions: 24 hours treatment, colonies scored after 12 to 14 days
Text: Human cells of the established line […], originating from a cervical carcinoma in situ (Nordbye, K. and Oftebro, R., 1969, Exp. Cell Res., 58:458 and Oftebro, R. and Nordbye, K., 1969, Exp. Cell Res., 58:459) were cultivated in medium Eagles minimum essential medium (MEM) supplemented with 10% fetal bovine serum and antibiotics. Cells were routinely grown as monolayers in tissue culture flasks. The cells were kept in continuous exponential growth by frequent reculturing every second or third day. During reculturing, as well as during experiments, the cells were kept in humidified CO2 incubators at 37° C.
In the experiments represented in this example, the proteinaceous CANP inhibitor was additionally purified by gel filtration chromatography.
Cell survival studies were performed by adding inhibitors to exponentially growing, asynchronous cells 2 hours after seeding the cells into plastic Petri dishes at known cell densities. The inhibitor treatment period was 24 hours after which the dishes were rinsed with warm (37° C.) Hanks' balanced salt solution and fresh medium without inhibitor, was added. After 12 to 14 days of incubation (with a medium shift on day 7) colonies of cells were fixed in ethanol and stained with methylene blue. Only colonies containing more than 40 cells were scored as survivors. The percent cell survival is calculated relative to untreated, control dishes.

M-cells = experiment: Cytological changes of cell cultures in continuous presence of the inhibitors; assay type: cell-based, human; conditions: continuous presence 72 and 120 h, 2 mg/ml trypsin-chymotrypsin inhibitor, 1 mg/ml aprotinin, leupeptin or E64
Experimental: (§1) a) Cytological Changes of Cell Cultures in Continuous Presence of the Inhibitors
(§2) The following samples were made up in RPMI-1640 complete medium:
(§3) 2. 2 mg/ml trypsin-chymotrypsin inhibitor
(§4) 6. all five inhibitors at the above mentioned concentrations
(§5) 7. RPMI-1640 medium with no inhibitor addition to serve as a control medium.
(§6) Ten glass Petri dishes (5 cm diameter) were seeded each with 1×10^6 M-cells and another ten dishes were seeded each with 1×10^6 P-cells. Duplicate cell cultures received each type of complete medium containing the inhibitors and control cultures received only complete medium. The cell cultures were incubated at 37° C. in a humidified CO2-incubator for 120 hours. The culture medium was changed with fresh medium containing the same inhibitors at 24 and 72 hours after start of the experiment. Half of the cell cultures were fixed in 50% ethanol 72 hours and the other half 120 hours after initiation of the experiment. All cell cultures were stained according to the Papanicolaou method.

P-cells = experiment: as above; assay type: cell-based, human; conditions: continuous presence 72 and 120 h, 2 mg/ml trypsin-chymotrypsin inhibitor, 1 mg/ml aprotinin, leupeptin or E64
Experimental: as §1, §2, §3, §4, §5, §6

Walker rat tumors = experiment: Calpain inhibitor I and II on growth of Walker rat tumors in vivo; parameters: species or system Wistar rats; conditions: liposomal, 27 mg/100 g rat daily i.p.
Experimental: Male Wistar rats were injected with 10×10^6 Walker tumor cells per rat at the inguinal region. Treatment was started when measurable tumors appeared. Each treatment group consisted of 5 rats. […] Rats were treated with 2 ml liposomal solution of inhibitors at a concentration of 13.5 mg/ml, equivalent to 27 mg/100 g rat, daily by intraperitoneal injection. Rats in the control group received daily injections of saline-filled liposomes. Tumor volume was determined by measuring two diameters with calipers. The data is presented in FIG. 3 in which each data point represents the mean±S.E. tumor volume measurements for 5 rats.

Row | Compound | cytotoxic effect (cell survival, FIG. 1) [1] | effect on growth or cytology compared to control cell cultures (M-cells) | effect on growth or cytology compared to control cell cultures (P-cells) | anticancer effect (tumor volume, FIG. 3) (Walker rat tumors) | tumor regression (Walker rat tumors; 5 doses)
1 | CC(=O)N[C@@H](CC(C)C)C(=O)N[C@@H](CC(C)C)C(=O)N[C@H](C=O)CCCNC(=N)N [leupeptin, N-acetyl-L-leucyl-L-leucyl-L-arginal] | little cytotoxic effect | did not affect the growth or cytology | did not affect the growth or cytology | – | –
2 | aprotinin | – | did not affect the growth or cytology | did not affect the growth or cytology | – | –
3 | CC(C)C[C@H](NC(=O)[C@H]1O[C@@H]1C(=O)O)C(=O)NCCCCN=C(N)N (relative stereo) [E64, L-trans-3-carboxy-oxiran-2-carbonyl-L-leucylagmatine] | little cytotoxic effect | did not affect the growth or cytology | did not affect the growth or cytology | – | –
4 | CSCC[C@@H](C=O)NC(=O)[C@H](CC(C)C)NC(=O)[C@H](CC(C)C)NC(C)=O [calpain inhibitor II, N-Acetyl-Leu-Leu-Methioninal] (Ac-Leu-Leu-Met-aldehyde) | slightly greater cytotoxicity than aprotinin | – | – | anticancer effect from the fourth dose | –
5 | CCCC[C@@H](C=O)NC(=O)[C@H](CC(C)C)NC(=O)[C@H](CC(C)C)NC(C)=O [calpain inhibitor I, N-Acetyl-Leu-Leu-Norleucinal] (Ac-Leu-Leu-[Nle]-aldehyde) | – | – | – | – | approximately 92%
